We go through 9 molecules from patent EP3722296B1, “DIHYDRONAPHTHYRIDINES AND RELATED COMPOUNDS USEFUL AS KINASE INHIBITORS FOR THE TREATMENT OF PROLIFERATIVE DISEASES” (Deciphera Pharmaceuticals, LLC, priority 2012, dated 2013).

Test [1] concerns Phospho-KIT (Tyr719). The experiment in a line: GIST430 KIT Western Blot. The settings on record: GIST430 cells, 4 hours, serum-free medium; read-out: pKIT suppression by western blot analysi GIST430. The test is classed as cell-based. How it is done: (§1) GIST48, GIST430, and GIST882 cells were obtained from J. Fletcher (Brigham and Women's Hospital, Boston, MA). GIST T1 cells were obtained from B. Rubin (Cleveland Clinic, Cleveland, OH) and Professor Takahiro Taguchi (Kochi Medical School, Nankoku, Kochi, Japan). […] GIST430 cells were grown in Ham's F10 medium supplemented with 15% characterized fetal bovine serum (Invitrogen, Carlsbad, CA), 30 mg/L bovine pituitary extract (BD Biosciences, San Jose, CA), 0.5% Mito+ serum extender (BD Biosciences, San Jose, CA), 1 unit/mL penicillin G, 1 µg/ml streptomycin, and 0.29 mg/mL L-glutamine at 37 °C, 5%CO2, 95% humidity. GIST T1 cells were grown in DMEM medium supplemented with 10% characterized fetal bovine serum (Invitrogen, Carlsbad, CA), 1 unit/mL penicillin G, 1 µg/ml streptomycin, and 0.29 mg/mL L-glutamine at 37 °C, 5% CO2, and 95% humidity.
(§2) One hundred fifty thousand cells were added per well in a 24-well tissue-culture treated plate. […] Medium was aspirated, cells were washed with PBS, and serum-free Ham's F10 medium was added. […] Cells were washed with PBS, then lysed. Cell lysates were separated by SDS-PAGE and transferred to PVDF. Phospho-KIT (Tyr719) was detected using an antibody from Cell Signaling Technology (Beverly, MA), ECL Plus detection reagent (GE Healthcare, Piscataway, NJ) and a Molecular Devices Storm 840 phosphorimager in fluorescence mode. Blots were stripped and probed for total KIT using an antibody from Santa Cruz Biotech (Santa Cruz, CA). IC50 values were calculated using Prism software (Graphpad, San Diego, CA).
(A western blot detects proteins with antibodies after separation by electrophoresis.)

For test [2], the system named is Phospho-KIT (Tyr719). Kind of test: GIST48 KIT Western Blot. It is filed as cell-based. The settings on record: GIST48 cells, 4 hours, serum-free medium; read-out: pKIT suppression by western blot analysi GIST48. The method, then: as §1
as §2, with “Two” for “One”, “RPMI1640” for “Ham's F10”

In the next test the test system is GIST T1 cells. The experiment in a line: GIST T1 Cell Proliferation Assay. It is filed as cell-based. To be noted: Homo sapiens, GISTT1, 72 h, 68 hours + 4 hours resazurin. The method, then:
GIST48, GIST430, and GIST882 cells were obtained from J. Fletcher (Brigham and Women's Hospital, Boston, MA). GIST T1 cells were obtained from B. Rubin (Cleveland Clinic, Cleveland, OH) and Professor Takahiro Taguchi (Kochi Medical School, Nankoku, Kochi, Japan). Briefly, GIST48 and GIST 882 cells were grown in RPMI 1640 medium supplemented with 15% characterized fetal bovine serum (Invitrogen, Carlsbad, CA), 1 unit/mL penicillin G, 1 µg/ml streptomycin, and 0.29 mg/mL L-glutamine at 37 °C, 5% CO2, and 95% humidity. GIST430 cells were grown in Ham's F10 medium supplemented with 15% characterized fetal bovine serum (Invitrogen, Carlsbad, CA), 30 mg/L bovine pituitary extract (BD Biosciences, San Jose, CA), 0.5% Mito+ serum extender (BD Biosciences, San Jose, CA), 1 unit/mL penicillin G, 1 µg/ml streptomycin, and 0.29 mg/mL L-glutamine at 37 °C, 5%CO2, 95% humidity. GIST T1 cells were grown in DMEM medium supplemented with 10% characterized fetal bovine serum (Invitrogen, Carlsbad, CA), 1 unit/mL penicillin G, 1 µg/ml streptomycin, and 0.29 mg/mL L-glutamine at 37 °C, 5% CO2, and 95% humidity.
A serial dilution of test compound was dispensed into a 384-well black clear bottom plate (Corning, Corning, NY). One thousand two-hundred fifty cells were added per well in 50 µL complete growth medium. Plates were incubated for 68 hours at 37 °C, 5% CO2, 95% humidity. At the end of the incubation period 10 µL of a 440 µM solution of resazurin (Sigma, St. Louis, MO) in PBS was added to each well and incubated for an additional 4 hours at 37 °C, 5% CO2, 95% humidity. Plates were read on a Synergy2 reader (Biotek, Winooski, VT) using an excitation of 540 nm and an emission of 600 nm.
(In general: The colour change of resazurin is a common sign of viable cells or microbes.)

A further test has as its target T1, c-KIT D816V kinase (Homo sapiens, UniProt P10721, D816V).
T1 construct: residues T544-V976 with N-terminal GST fusion; purchased deCODE Biostructures
Kind of test: c-KIT D816V kinase Assay. The test is classed as biochemical. The settings on record: enzymatic assay, ATP 200 uM. The gist of the method: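 Coupled assay in which NADH oxidation was tracked as decreasing absorbance at 340 nm, continuously for 5 hours at 30 °C after adding serially diluted compound. Enzyme: cKit residues T544-V976 with N-terminal tag, GST fusion and TEV cleavage site.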

In a further test the target is T2, c-KIT T670I kinase (Homo sapiens, UniProt P10721, T670I).
T2 construct: The construct contains residues T544-V976 of cKit; GST (N); TEV cleavage site (internal); purchased deCODE Biostructures
The experiment in a line: c-KIT T670I kinase assay. The test is classed as biochemical. The settings on record: enzymatic assay. In outline:
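Coupled spectrophotometric assay following NADH oxidation as absorbance decrease at 340 nm, monitored continuously for 5 h at 30 °C after adding serially diluted compound. Enzyme is a cKit construct with N-terminal tag, GST fusion and TEV site, carrying the T670I mutation.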

Another test concerns the target T3, c-KIT V654A kinase (Homo sapiens, UniProt P10721, V654A).
T3 construct: residues T544-V976 with N-terminal GST fusion; purchased deCODE Biostructures
The experiment in a line: c-KIT V654A Kinase Assay. It is filed as biochemical. The settings on record: enzymatic assay, ATP 200 µM. The gist of the method:
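Construct: cKIT residues T544–V976 with N-terminal tag, GST fusion and TEV site. Reaction started by adding serially diluted compound to the enzyme mixture; NADH oxidation, coupled to kinase turnover, followed as the decrease in A340 for 6 h at 30 °C.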

For another test, the target named is T4, c-KIT D816H kinase (Homo sapiens, UniProt P10721, D816H).
T4 construct: The construct contains residues T544-V976 of cKit; GST (N); TEV cleavage site (internal); purchased deCODE Biostructures
The experiment in a line: c-KIT D816H Kinase Assay. The test is classed as biochemical. To be noted: enzymatic assay, ATP 200 µM. In outline:
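Coupled spectrophotometric assay following NADH oxidation as absorbance decrease at 340 nm, monitored continuously for 6 hours at 30 °C after adding serially diluted compound. Enzyme: mutant cKit construct with N-terminal tag, GST fusion and TEV cleavage site.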

The target of another test is c-KIT kinase (Homo sapiens, UniProt P10721). Kind of test: c-KIT kinase Assay. The test is classed as biochemical. Further details: cKIT residues T544-V976; GST (N); TEV cleavage site (internal); purchased deCODE Biostructures. The settings on record: enzymatic assay, ATP 200 µM; read-out: KIT (wt) IC50. The gist of the method:
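Activity of wild-type human c-KIT kinase was followed as NADH oxidation, read as falling absorbance at 340 nm on a Synergy 2 plate reader (BioTeK) for 2 hours at 30 °C. Rates from the 0 to 1 h window were compared with an uninhibited control to give percent inhibition. IC50 values were fitted in GraphPad Prism across a range of inhibitor concentrations.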

T2 sequence (P10721 544-976 T670I): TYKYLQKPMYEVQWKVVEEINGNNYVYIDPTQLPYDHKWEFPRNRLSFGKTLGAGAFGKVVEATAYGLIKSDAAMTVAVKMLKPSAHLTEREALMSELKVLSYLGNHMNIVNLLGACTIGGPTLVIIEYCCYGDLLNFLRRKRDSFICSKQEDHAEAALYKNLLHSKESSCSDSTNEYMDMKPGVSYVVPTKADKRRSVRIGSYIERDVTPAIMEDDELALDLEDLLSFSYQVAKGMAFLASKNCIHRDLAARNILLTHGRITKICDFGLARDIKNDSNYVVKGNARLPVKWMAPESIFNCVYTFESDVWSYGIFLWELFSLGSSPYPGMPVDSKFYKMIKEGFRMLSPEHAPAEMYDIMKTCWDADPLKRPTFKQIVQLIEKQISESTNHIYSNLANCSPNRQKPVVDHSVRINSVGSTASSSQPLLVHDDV
T4 sequence (P10721 544-976 D816H): as the sequence (P10721 544-976 T670I) above, with I127T, D273H counted along it
T3 sequence (P10721 544-976 V654A): as the sequence (P10721 544-976 T670I) above, with V111A, I127T counted along it
T1 sequence (P10721 544-976 D816V): as the sequence (P10721 544-976 T670I) above, with I127T, D273V counted along it
Chain of c-KIT kinase (P10721 544-976): as the sequence (P10721 544-976 T670I) above, with I127T counted along it

Consider `CCn1c(=O)c(-c2cc(NC(=O)Nc3cccc(Cl)c3)c(F)cc2F)cc2cnc(NC)cc21` [Example 17, 1-(3-chlorophenyl)-3-(5-(1-ethyl-7-(methylamino)-2-oxo-1,2-dihydro-1,6-naphthyridin-3-yl)-2,4-difluorophenyl)urea], for which the IC50 with Phospho-KIT (Tyr719) [1] and with Phospho-KIT (Tyr719) [2] was 0.01 to 0.1 µM each time.
For the molecule `CCn1c(=O)c(-c2cc(NC(=O)Nc3ccccc3)c(F)cc2Cl)cc2cnc(N)cc21` [Example 21, 1-(5-(7-amino-1-ethyl-2-oxo-1,2-dihydro-1,6-naphthyridin-3-yl)-4-chloro-2-fluorophenyl)-3-phenylurea], the results for the IC50 in the test on Phospho-KIT (Tyr719) [1], in the test on Phospho-KIT (Tyr719) [2] and in the test on GIST T1 cells were below 0.01 µM, 0.01 to 0.1 µM and below 0.01 µM, respectively.
As to `CCn1c(=O)c(-c2cc(NC(=O)Nc3ccccc3)c(F)cc2Cl)cc2cnc(NCCCN(C)C)cc21` [Example 30, 1-(4-chloro-5-(7-(3-(dimethylamino)propylamino)-1-ethyl-2-oxo-1,2-dihydro-1,6-naphthyridin-3-yl)-2-fluorophenyl)-3-phenylurea], the IC50 with Phospho-KIT (Tyr719) [1] lay within 0.01 to 0.1 µM; with Phospho-KIT (Tyr719) [2], 0.1 to 1 µM.
`CNc1cc2c(cn1)cc(-c1cc(NC(=O)Nc3cccc(F)c3)c(F)cc1C)c(=O)n2C(C)C` [Example 41, 1-(2-fluoro-5-(1-isopropyl-7-(methylamino)-2-oxo-1,2-dihydro-1,6-naphthyridin-3-yl)-4-methylphenyl)-3-(3-fluorophenyl)urea]: the IC50 was 0.01 to 0.1 µM in the test on Phospho-KIT (Tyr719) [1]; 0.1 to 1 µM with Phospho-KIT (Tyr719) [2]; 0.01 to 0.1 µM at c-KIT D816V kinase; above 1 µM at c-KIT T670I kinase; 0.01 to 0.1 µM at c-KIT V654A kinase; below 0.01 µM on c-KIT D816H kinase. For the same molecule, the IC50 at c-KIT kinase was below 0.01 µM.
On to `CCn1c(=O)c(-c2cc(NC(=O)Nc3ccccc3)c(F)cc2Br)cc2cnc(NC(C)=O)cc21` [Example 53, 1-(5-(7-acetamido-1-ethyl-2-oxo-1,2-dihydro-1,6-naphthyridin-3-yl)-4-bromo-2-fluorophenyl)-3-phenylurea], for which the IC50 was below 0.01 µM with Phospho-KIT (Tyr719) [1], 0.1 to 1 µM in the test on Phospho-KIT (Tyr719) [2] and below 0.01 µM in the test with GIST T1 cells.
Consider `CCn1c(=O)c(-c2cc(NC(=O)Nc3ccccc3)c(F)cc2F)cc2cnc(NC(C)=O)cc21` [Example 66, 1-(5-(7-acetamido-1-ethyl-2-oxo-1,2-dihydro-1,6-naphthyridin-3-yl)-2,4-difluorophenyl)-3-phenylurea], for which the IC50 with Phospho-KIT (Tyr719) [1] is 0.01 to 0.1 µM; with Phospho-KIT (Tyr719) [2], 0.1 to 1 µM; with GIST T1 cells it was below 0.01 µM.
The matching figures for `CCn1c(=O)c(-c2cc(NC(=O)Nc3cccc(CN4CCN(C)CC4)c3)c(F)cc2Cl)cc2cnc(NC)cc21` [Example 79, 1-(4-chloro-5-(1-ethyl-7-(methylamino)-2-oxo-1,2-dihydro-1,6-naphthyridin-3-yl)-2-fluorophenyl)-3-(3-((4-methylpiperazin-1-yl)methyl)phenyl)urea]: 0.01 to 0.1 µM, 0.01 to 0.1 µM and below 0.01 µM.
For `CCn1c(=O)c(-c2cc(NC(=O)Nc3cc(F)cc(CN4CCN(C)CC4)c3)c(F)cc2Cl)cc2cnc(NC)cc21` [Example 88, 1-(4-chloro-5-(1-ethyl-7-(methylamino)-2-oxo-1,2-dihydro-1,6-naphthyridin-3-yl)-2-fluorophenyl)-3-(3-fluoro-5-((4-methylpiperazin-1-yl)methyl)phenyl)urea] the same measures were 0.01 to 0.1 µM, 0.01 to 0.1 µM and below 0.01 µM.
In the case of `CCn1c(=O)c(-c2cc(NC(=O)Nc3cc(F)cc(F)c3)c(F)cc2C)cc2cnc(NC(=O)N(C)C)cc21` [Example 108, 3-(3-(5-(3-(3,5-difluorophenyl)ureido)-4-fluoro-2-methylphenyl)-1-ethyl-2-oxo-1,2-dihydro-1,6-naphthyridin-7-yl)-1,1-dimethylurea], the IC50 was in the range of 0.01 to 0.1 µM in the test on Phospho-KIT (Tyr719) [1]; 0.1 to 1 µM in the test on Phospho-KIT (Tyr719) [2]; 0.01 to 0.1 µM at c-KIT D816V kinase; 0.01 to 0.1 µM at c-KIT T670I kinase; 0.1 to 1 µM on c-KIT V654A kinase; 0.01 to 0.1 µM at c-KIT D816H kinase. In addition, at c-KIT kinase, the IC50 fell in the range of 0.01 to 0.1 µM.
